What all share (assay): DTP human tumour cell line panel, 48 h
Assay [1] relates to ACHN renal.
Assay [2] has as its system M14 melanoma.
Assay [3] has as its system NCI/ADR-RES ovarian.
Assay [4] concerns MDA-N.
In assay [5] the test system is 786-0 renal.
Assay [6] concerns NCI-H23 lung.
For assay [7], the system named is SF-268 CNS.
The subject of assay [8] is A498 renal.
For assay [9], the system named is HS 578T breast.
In assay [10] the test system is MDA-MB-435.
The subject of assay [11] is HCT-15 colon.
For assay [12], the system named is HCT-116 colon.

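Protocol summary: plate cells (96-well), add compound at 5 concentrations, incubate 48 h, interpolate endpoints linearly. TGI: concentration producing complete growth inhibition.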

Regarding `CC1OC(O[C@H]2C3C=CO[C@@H](OC4OC(CO)C(O)C(O)C4O)C3[C@@]3(COC(=O)/C=C/c4ccccc4)O[C@@H]23)C(O)C(O)C1O` (stereo partly specified), the TGI in assay [1], in assay [2], in assay [3], in [4], in [5] and in assay [6] was above 100 µM throughout. Moreover, the TGI in assay [7], in assay [8], in assay [9], in [10], in [11] and in [12] was above 100 µM throughout.
As to `CN1CC[C@]2(c3cccc(O)c3)CC(=O)/C(=C/c3ccccc3)[C@@H]1C2`, the TGI (commonly the concentration giving total growth inhibition) in assay [1] amounted to 6.74 µM; in [2] it was 12.1 µM; in [3], 16.1 µM; in [4], 3.94 µM; in assay [5], 7.12 µM; in assay [6], 36.8 µM. Besides, the concentration for total growth inhibition (TGI) in assay [7] amounted to 10.4 µM; in assay [8], 17 µM; in assay [9] it was 13 µM; in assay [10], 5.38 µM; in [11], 4.93 µM; in assay [12] it was 5.94 µM.
For the compound `CCOC(=O)c1c2cccccc-2nc1Nc1cccc2c(C)ccnc12`, the TGI in assay [1], in assay [2], in assay [3], in assay [4], in [5] and in assay [6] was above 10 µM in each case. The TGI in assay [7], in assay [8], in assay [9], in assay [10], in assay [11] and in assay [12] was above 10 µM each time.
`Nc1ncnc2c1ccn2C/C=C/CO`: the TGI in assay [1], in assay [2], in assay [3], in assay [4], in assay [5] and in [6] was above 100 µM in each case. Also, the TGI in assay [7], in [8], in assay [9], in assay [10], in assay [11] and in [12] was above 100 µM each time.
With `CCc1n[nH]c(=O)n1-c1ccc2ccccc2c1`, the concentration for total growth inhibition (TGI) in assay [1], in assay [2], in [3], in [4], in assay [5] and in assay [6] was above 100 µM throughout. Moreover, the TGI in [7], in assay [8], in assay [9], in assay [10], in assay [11] and in assay [12] was above 100 µM each time.
As to `C=C(C)[C@H]1C2=CC(C(=O)OC)=C(C[C@H](C(=C)C)[C@@H](O)[C@@H](O)C3=C[C@H]1OC3=O)O2`, the TGI in assay [1], in assay [2], in [3], in [4], in assay [5] and in assay [6] was above 100 µM in each case. For the same compound, the TGI in assay [7], in assay [8], in assay [9], in assay [10], in [11] and in assay [12] was above 100 µM throughout.
As for `C/C1=C\[C@H](C)C[C@H](C)OC(=O)[C@H](C)NC(=O)[C@@H](Cc2ccc(O)c(Br)c2)N(C)C(=O)[C@H](C)NC(=O)[C@@H](C)C1`, the total growth inhibition concentration (TGI) in [1] is 1.04 µM; in assay [2] it was above 25 µM; in assay [3] it was above 19.8 µM; in [4], above 25 µM; in assay [6] it was above 25 µM; in [7] it was 1.57 µM. For the same compound, the TGI in assay [8] is 0.051 µM; in assay [9], 3.76 µM; in assay [10], above 25 µM; in [11], above 25 µM; in assay [12], above 12.2 µM.
Regarding `CSc1nc2c(c(N(C)C)n1)C(O)n1c(nc3ccccc31)S2` (stereo unspecified), the TGI in assay [1], in [2], in assay [3], in [4], in assay [5] and in [6] was above 100 µM throughout. Besides, the concentration for total growth inhibition (TGI) in assay [7] was above 100 µM; in assay [8] it was above 100 µM; in assay [9] it was above 70.8 µM; in assay [10] it was above 100 µM; in assay [11] it was above 100 µM; in assay [12], above 62.1 µM.
As for `CN(C)Cc1cc(C(=O)/C=C/c2ccc([N+](=O)[O-])cc2)cc(CN(C)C)c1O`, the TGI turned out to be 10.2 µM in assay [1]; 23.3 µM in assay [2]; 87 µM in assay [3]; 24.7 µM in assay [4]; 15.2 µM in [5]; 47.5 µM in assay [6]. The TGI in assay [7] amounted to 42.9 µM; in assay [8], 23.9 µM; in assay [9] it was 60.3 µM; in [10], 37.3 µM; in assay [11], 25.1 µM; in assay [12], 13.1 µM.
Take `CCOC(=O)/C(C(C)=O)=C(\OC(C)=O)c1ccncc1C(=O)O`: the TGI in [1], in assay [2], in [3], in [4], in [5] and in assay [6] was above 100 µM in each case. Also, the TGI in assay [7], in [8], in [9], in assay [10], in assay [11] and in assay [12] was above 100 µM throughout.
Regarding `CO/N=C(/C(=O)OC)c1ccccc1COc1ccccc1C(F)(F)F`, the TGI in assay [1], in [2], in assay [3], in assay [4], in assay [5] and in [6] was above 100 µM throughout. The TGI in assay [7], in assay [8], in [9], in assay [10], in [11] and in assay [12] was above 100 µM throughout.
Take `COC1OC2COC(c3ccccc3)OC2C(O)C1OC(=S)c1ccccc1` (stereo unspecified): the TGI in assay [1] was 67 µM; in [2], above 100 µM; in assay [3], above 100 µM; in assay [4] it was 80.9 µM; in assay [6], above 100 µM; in [7], above 100 µM. In addition, the TGI is above 100 µM in [8], above 100 µM in [9], 4.37 µM in [10] and above 100 µM in assay [11].
Turning to `CC(C)(CO)CNc1nc(N)nc(Cl)c1/C=N/O`, the total growth inhibition concentration (TGI) in [1], in [3], in assay [4], in assay [5], in assay [6] and in [7] was above 100 µM in each case. In addition, the TGI in assay [8], in [9], in [10], in [11] and in assay [12] was above 100 µM each time.
For `COC(=O)c1ccccc1CC1Cc2cccc(C)c2C1=O` (stereo unspecified), the total growth inhibition concentration (TGI) in assay [1], in assay [2], in assay [3], in assay [4], in [5] and in [6] was above 100 µM in each case. Moreover, the TGI in assay [7] is above 100 µM; in [9] it was above 100 µM; in [10], 50.8 µM; in assay [11], 73.3 µM; in assay [12], above 100 µM.
For the compound `O=c1onc2n1-c1cc(Cl)ccc1C(=S)N1CSCC21` (stereo unspecified), the TGI in assay [1], in assay [2], in [3], in assay [4], in assay [5] and in [7] was above 100 µM each time. The TGI in assay [8], in assay [9], in assay [10], in [11] and in assay [12] was above 100 µM each time.
As for `COc1ccc2oc(=N)c(C(=O)Nc3ccccc3)cc2c1`, the TGI in [1] was above 100 µM; in assay [2], above 100 µM; in assay [3] it was 44 µM; in assay [4] it was 48.4 µM; in assay [6], 51.8 µM; in assay [7] it was 53.9 µM. The TGI in assay [8] is 39.8 µM; in assay [9], 39.6 µM; in assay [10] it was 32.3 µM; in assay [11], above 100 µM; in assay [12], above 100 µM.
As for `Cc1cc(C[C@H]2O[C@@H]3OC(C)(C)O[C@@H]3[C@H]3OC(C)(C)O[C@H]32)c2ccccc2n1`, the TGI in assay [1], in assay [3], in assay [4], in assay [5], in [6] and in [7] was above 100 µM throughout. The TGI in [8], in assay [9], in assay [10], in assay [11] and in assay [12] was above 100 µM in each case.

These data come from PubChem BioAssay (NCI).
